# What was measured:
# [1] = system: MC38 cells; assay: qRT-PCR of MHC Class I and immunoproteasome genes in MC38 cells; assay type: cell-based, mouse; details: 60 nM, 72 hours
# Description: FIGS. 5A-5L are graphs showing low dose administration of HSP90i diversifies the antigen repertoire of tumor cells. FIG. 5A is a bar graph showing relative mRNA expression MHC Class I and immunoproteasome gene expression in MC38 cells treated for 72 hours with HSP90i (60 nM) based on qRT-PCR analysis. All treated samples were normalized to DMSO (Veh)=1 (n=3); FIG. 5B is a schematic depiction of the effect of HSP90i treatment on proteasome composition and ONX-0914 mode of action; FIG. 5C is a bar graph showing cell surface expression of MHC Class I on MC38 cells treated with vehicle or HSP90i in combination with DMSO or ONX-0914 (500 nM). Normalized values calculated based on the median fluorescence intensity of the baseline sample for DMSO- or ONX-0914-treated samples (n=3); FIG. 5D is a schematic overview of protocol for MHC Class I peptide profiling; motif analysis for amino acid enrichment of 8-mer (FIG. 5E) and 9-mer peptides (FIG. 5F) identified by mass spectrometry; FIG. 5G is a histogram depicting the size distribution of peptides identified by MHC Class I IP and mass spectrometry; FIG. 5H is a Venn diagram of the number of unique peptides identified in vehicle- and Hsp90i-treated samples. […]
# [2] = system: KPM lung tumors; assay: Lung tumor burden in hypermutant KPM mouse model of NSCLC; assay type: in vivo; details: KPM mice, 0.5 mg/kg/day in drinking water for 4 weeks
# Text: A genetically engineered mouse model of non-small cell lung cancer (NSCLC) was used. Mice harboring a Cre-recombinase inducible oncogenic Kras, and a floxed p53 allele (KP) develop tumors following intratracheal administration of Cre recombinase. In addition, a hypermutant mouse model of NSCLC (KPM) was used in which mice have a floxed allele of the MutS homolog 2 (Msh2) gene, a critical component of DNA mismatch repair, in addition to the genetic modifications of the KP mouse model. These models enable the interrogation of Hsp90i strategies in a physiologically relevant NSCLC model with and without hypermutation.
# KP and KPM mice were infected intratracheally with Adenovirus expressing Cre recombinase from an SPC promoter at a titer of 2×10^8 plaque forming units per mouse to initiate tumor formation. 8 weeks following tumor initiation, the cohort was randomized and vehicle (control) or Hsp90i (NVP-HSP990) was administered in the drinking water at a dose of 0.5 mg/kg/day for 4 weeks prior to analysis at 12 weeks post tumor induction.
# Tumor burden was analyzed histologically on tumor sections stained with hemotoxylin and eosin (H&E) using standard protocols at the Koch Institute Histology Facility. Tumor burden was calculated by dividing the total area of tumor tissue over the total area of normal lung tissue present in each sample.
structure (smiles),measurement,setting,value
COc1cccc(-c2cc(F)ccc2[C@H]2Cc3nc(N)nc(C)c3C(=O)N2)n1 [NVP-HSP990],"expression of immunoproteasome genes Psme1, Psme2, Psmb8, Psmb9, Psmb10",[1],robustly induced
same,transcript levels of MHC Class I heavy chains H2-K1 and H2-D1 or light chain B2m,[1],did not alter transcript levels
same,lung tumor burden versus control,[2],significantly reduced the lung tumor burden
